The record followed here is patent US20260364072A1, “METHODS FOR PROMOTING EXPANSION OF HUMAN CD34+ CELLS IN VIVO AND FOR PROMOTING NEURAL REGENERATION” (THE REGENTS OF THE UNIVERSITY OF CALIFORNIA, priority 2023, published 2026).

One data set deals with ADAR1. Briefly: ADAR1 nanoluc-GFP reporter assay in primary high-risk MF CD34+ cells in stromal co-culture. It is filed as cell-based, human. The conditions noted are these: primary high-risk MF HPCs, 72 hr; p<0.05 compared to DMSO. The source says: (FIG. 27F) Luminescence-based quantification of ADAR1-dependent nanoluciferase signals in CD34^+ cells from primary, high-risk MF samples (*=untreated patient) after in vitro transduction with the ADAR1 nanoluc-GFP reporter and treatment with vehicle control (DMSO) or Rebecsinib (72 hr). Relative luciferase signals were normalized to cell viability for each condition. Data are represented as mean±SEM. p<0.05 compared to DMSO controls by pairwise t-test.
For nanoluciferase RNA editing activity assays, CD34^+ selected cells from primary high-risk MF samples were lentivirally transduced with ADAR1 nanoluc-GFP reporter for 48 hr, followed by treatment with DMSO or Rebecsinib in stromal co-culture for 72 hr. Luminescence reporter activity was measured in 10,000 cells by NANO-GLO LUCIFERASE ASSAY™ and values were normalized to cell viability. Cell viability was measured in 10,000 cells by CellTiter-Glo Luciferase Assay (Promega). A pilot in vivo reporter assay was also performed using TF-1a cells that were stably transduced with the ADAR1 nanoluc-GFP reporter. […] Cells were transplanted into neonatal Rag2^−/−γc^−/− mice (70,000 cells per mouse), and animals were imaged 4 weeks after transplant on the IVIS 200, as previously described.^7,9 Human cell engraftment was also confirmed in the peripheral blood in the same week as imaging.
(A reporter such as luciferase makes a cellular process visible.)

Data set [1] can be described thus: Rat single-dose toxicokinetic study. It is filed as in vivo, Sprague Dawley rats. The conditions noted are these: IV bolus; for Tmax / half-life: plasma. As to the method:
Pre-IND PD and toxicokinetic (TK) studies (FIG. 4D) were enabled by scalable Rebecsinib synthesis^34 and development of an optimized formulation for in vivo biodistribution (5% w/v EtOH, 5% w/v Kolliphor HS15 in 0.9% Sodium Chloride). In PK studies, Rebecsinib was detectable in rat, rabbit, and non-human primate (NHP) plasma following IV bolus administration. In rat TK studies, Rebecsinib was quantifiable up to 1-hour post-dose at 1 mg/kg and up to 4 hours post-dose at 3, 5, and 8 mg/kg (FIG. 4E). […] Rebecsinib T1/2 values were 0.342, 0.447, 0.313, and 0.530 hours at 1, 3, 5, and 8 mg/kg, respectively. […] Following 3, 10, and 20 mg/kg boluses, Rebecsinib was quantifiable in plasma 1 hour post-dose and could be detected up to 8 hours post-dosing with 40 mg/kg (FIG. 4F). […] Following 3, 10, 15, and 20 mg/kg of Rebecsinib, quantifiable plasma concentrations of Rebecsinib were observed through 8 hrs post-dose (FIG. 4G).
(FIG. 29D) Schematic diagram outlining multispecies toxicokinetic (TK) and pharmacodynamic studies in mammalian species treated in vivo with a single dose of Rebecsinib. Toxicokinetic analyses were performed in rats (n=6 per sex, per group), rabbits (n=2 per sex, per group), and non-human primates (NHPs, n=1 per sex, per group) and pharmacodynamic splice isoform quantification studies were performed in peripheral blood mononuclear cells (PBMCs) from NHP.
(FIG. 29E, FIG. 29F) For toxicokinetic analyses, rats (FIG. 29E) and rabbits (FIG. 29F) were given a single injection of Rebecsinib at 1-40 mg/kg, or vehicle control, and blood samples were drawn at regular intervals to determine plasma concentrations of the compound over 8 hr after treatment.
Single-dose TK studies were performed in Sprague Dawley rats (Charles River Labs, South San Francisco, CA), New Zealand white rabbits (BASi/Inotiv, West Lafayette, IN), and cynomolgus monkeys (BASi/Inotiv). Rat and rabbit studies included toxicology analyses, quantification of plasma levels of Rebecsinib, and necropsies to evaluate organ integrity after treatment. For NHP studies, health and ophthalmological evaluations were performed before and after dosing with Rebecsinib, and blood samples were collected for quantification of plasma levels of Rebecsinib and biomarker studies in PBMCs from treated and control animals. All monkeys were returned to the animal colony after the end of the observation period. Toxicokinetic values including mean plasma concentrations and t1/2 values were calculated according to CRO-approved protocols (Charles River and BASi).

Another data set relates to MF HPC. Briefly: Viability of high-risk MF CD34+ cells by flow cytometry. It is filed as cell-based, human. To be noted: 72 hr, compared with vehicle controls. As to the method:
(FIG. 28B) Flow cytometry-based viable cell counts (5,000 events measured) in high-risk MF samples after in vitro treatment of primary CD34^+ cells with vehicle control (DMSO) or Rebecsinib (72 hr).
Human HS5 and HS27a^45 or mouse bone marrow cells lines SL (hSCF and hIL3) and M2 (hIL3 and hG-CSF) were irradiated and then mixed at a ratio of 1:1 and incubated overnight for attachment. CD34^+ were selected from high-risk MF and sAML primary samples using magnetic beads (Miltenyi Biotec, Germany). As a control, CD34^+ cells from aged normal bone marrow (aNBM), young normal BM (yNBM) and cord blood (All Cells Inc, Alameda, CA) mononuclear cells were utilized. To establish co-cultures, 10,000-15,000 CD34^+ cells were added to SLM2 stroma in 1 ml of MYELOCULT H5100™ (STEMCELL Technologies, Vancouver, Canada). Rebecsinib or DMSO control were added at the initiation of co-culture at indicated concentrations. After one week, cells that were both attached to stroma and floating were collected, resuspended in fresh media and plated in methylcellulose (MC) H4330™ (STEMCELL Technologies) in triplicate. After 2 weeks primary colonies (more than 40 cells) were counted and individual multilineage colonies were plucked, cells resuspended and re-plated again in fresh MC. Secondary colonies were counted after another 14 days. […]
A general note: In flow cytometry, cells or beads pass a laser one at a time.

With `CC[C@H](OC)[C@@H](C)[C@H]1O[C@@H]1[C@@H](O)[C@H](C)/C=C/C=C(\C)[C@H]1OC(=O)C[C@H](O)CC[C@@](C)(O)[C@@H](OC(C)=O)/C=C/[C@@H]1C` [Rebecsinib], the “ADAR1 RNA editing activity (nanoluciferase signal)” value in the data set on ADAR1 was “significantly reduced ADAR1 RNA editing activity”. In addition, the “last time quantifiable in plasma” value in data set [1] (1 mg/kg) was “up to 1 hour”; in data set [1] (3 mg/kg), “up to 4 hours”; in data set [1] (5 mg/kg), “up to 4 hours”; in data set [1] (8 mg/kg) it was “up to 4 hours”. Also, the Tmax (usually the time from dosing to the highest level) in data set [1] (1 mg/kg) was at most 4.98 min; in data set [1] (3 mg/kg), at most 10 min; in data set [1] (5 mg/kg), at most 4.98 min; in data set [1] (8 mg/kg) it was at most 10 min. Besides, the half-life (commonly how long it takes for the measured level to halve) was 20.5 min in data set [1] (1 mg/kg), 26.8 min in data set [1] (3 mg/kg), 18.8 min in data set [1] (5 mg/kg) and 31.8 min in data set [1] (8 mg/kg). Further, the “MF HPC viability” value in the data set on MF HPC was “decreased MF HPC viability”.
